target: T1, binding of 3H-pirenzepine to brain homogenate of rat (Rattus norvegicus, UniProt P08482); assay: Inhibition against binding of 3H-pirenzepine to brain homogenate of rat; settings: 2.0 nM 3H-pirenzepine; rat brain homogenate without cerebellum; 550 mM phosphate buffer pH 7.4; 60 minutes at room temperature; read-out: 50% inhibition (IC50) against binding of 3H-pirenzepine to brain homogenate
T1 construct: from tissue; host or cells: brain of male SD rats, cerebellum removed; supernatant of 1000×g, re-homogenized
T1 sequence (P08482 1-460): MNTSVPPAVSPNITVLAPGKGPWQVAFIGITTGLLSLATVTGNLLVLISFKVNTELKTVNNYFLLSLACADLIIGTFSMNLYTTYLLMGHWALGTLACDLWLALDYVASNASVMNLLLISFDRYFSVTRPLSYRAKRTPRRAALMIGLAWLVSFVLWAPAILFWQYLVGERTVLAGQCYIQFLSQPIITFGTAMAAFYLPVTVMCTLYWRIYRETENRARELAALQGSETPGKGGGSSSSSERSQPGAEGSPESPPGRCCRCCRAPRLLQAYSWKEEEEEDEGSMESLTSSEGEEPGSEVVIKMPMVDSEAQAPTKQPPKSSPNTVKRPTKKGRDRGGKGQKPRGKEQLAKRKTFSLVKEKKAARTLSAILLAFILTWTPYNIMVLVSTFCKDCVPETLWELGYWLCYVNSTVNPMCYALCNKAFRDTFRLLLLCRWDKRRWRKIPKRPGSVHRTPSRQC
Procedure: (Inhibition against binding of 3H-pirenzepine to brain homogenate of rat)
A brain homogenate of rat was prepared in accordance with the method described by Yamanura and Synder ["Proc. Natr. Acad. Sci. USA", Vol. 71, pages 1725-1729 (1974)]. Namely, SD male rats were killed by decapitation to exentrate each brain. From the brains, each cerebellum was removed and 0.32 M aqueous sucrose solution in 10-folds by volume was added under ice-cooling condition to homogenize the same by a Potter-Elvehjem type glass homogenizer. The resulting homogenate was centrifuged for 10 minutes (1000×g) to obtain a supernatant by removing a precipitate, which supernatant was further homogenized by a homogenizer of "Polytron" to obtain a fraction to be used as a brain homogenate.
Tests were carried out according to the method described by Flynn and Mash ["J. Pharm. Exp. Ther.", Vol. 250, pages 573-581 (1989). Namely, to the brain homogenate (0.035 ml, protein content: 0.6 mg), 550 mM phosphate buffer (pH 7.4, 1 ml) containing 2.0 nM ^3 H-pirenzepine and a Test or Control compound (1 ml, if the test or control compound is solid form, it is dissolved by the 550 mM phosphate buffer) were added to cause a reaction for 60 minutes at room temperature. Then, an ice-cooled buffer (3.0 ml) same with the above was added to the reaction mixture. Thereafter, the mixture was filtrated by a Whattman GF/B filter which was previously dipped in 0.1% polyethyleneimine solution for 60 minutes. The filter was washed twice by the buffer solution (each 3.0 ml) and an emulsion scintillatot for measuring luminescence by a scintillation counter. A 50% inhibition (IC50)of the test or control compound against binding of 3H-pirenzepine to brain homogenate was calculated.

| SMILES | IC50 [nM] |
| --- | --- |
| CN(CC12CCCN1CCC2)c1ccccc1[N+](=O)[O-] [Example 17, N-(1-azabicyclo[3.3.0]octan-5-yl)methyl-N-methyl-2-nitroaniline] | 200 |
| N#Cc1ccccc1NCC12CCCN1CCC2 [Example 34, 2-[(1-Azabicyclo[3.3.0]octan-5-yl)methylamino]benzonitrile] | 550 |
| N#Cc1ccc(NCCC23CCCN2CCC3)cc1 [Example 28, 4-[2-(1-Azabicyclo[3.3.0]octan-5-yl)ethylamino]-benzonitrile] | 4570 |
| Fc1ccccc1NCCC12CCCN1CCC2 [Example 31, N-[2-(1-Azabicyclo[3.3.0]octan-5-yl)ethyl]-2-fluoroaniline] | 1590 |
| CN(CC12CCCN1CCC2)c1ccc(Cl)c2ccccc12 [Example 1, 1-[N-(1-Azabicyclo[3.3.0]octan-5-yl)methyl-N-methylamino]-4-chloronaphthalene] | 10 |
| O=[N+]([O-])c1cc(F)ccc1NCCC12CCCN1CCC2 [Example 32, N-[2-(1-Azabicyclo[3.3.0]octan-5-yl)ethyl]-4-fluoro-2-nitroaniline] | 690 |
| COc1ccc(N(C)CC23CCCN2CCC3)c2ccccc12 [Example 3, 1-[N-(1-Azabicyclo[3.3.0]octan-5-yl)methyl-N-methylamino]-4-methoxynaphthalene] | 90 |
| O=[N+]([O-])c1ccccc1NCCC12CCCN1CCC2 [Example 23, N-[2-(1-Azabicyclo[3.3.0]octan-5-yl)ethyl]-2-nitroaniline] | 100 |
| N#Cc1ccccc1NCCC12CCCN1CCC2 [Example 27, 2-[2-(1-Azabicyclo[3.3.0]octan-5-yl)ethylamino]benzonitrile] | 320 |
| CN(CC12CCCN1CCC2)c1ccccc1-c1ccccc1 [Example 20, N-(1-Azabicyclo[3.3.0]octan-5-yl)methyl-N-methyl-2-phenylaniline] | 100 |
| CN(CCC12CCCN1CCC2)c1ccccc1[N+](=O)[O-] [Example 25, N-[2-(1-Azabicyclo[3.3.0]octan-5-yl)ethyl]-N-methyl-2-nitroaniline] | 200 |
| CN(CC12CCCN1CCC2)c1ccc(F)c2ccccc12 [Example 8, 1-[N-(1-Azabicyclo[3.3.0]octan-5-yl)methyl-N-methylamino]-4-fluoronaphthalene] | 20 |
| Clc1ccccc1NCCC12CCCN1CCC2 [Example 30, N-[2-(1-Azabicyclo[3.3.0]octan-5-yl)ethyl]-2-chloroaniline] | 430 |
| CN(CCC12CCCN1CCC2)c1ccccc1C#N [Example 29, 2-{[2-(1-Azabicyclo[3.3.0]octan-5-yl)ethyl]methylamino}-benzonitrile] | 240 |
| CCN(CC12CCCN1CCC2)c1ccc([N+](=O)[O-])c2ccccc12 [Example 12, 1-[N-(1-azabicyclo[3.3.0]octan-5-yl)methyl-N-ethylamino]-4-nitronaphthalene] | 200 |
| O=[N+]([O-])c1ccccc1NCCC12CCCN1CCC2 [Example 36, N-[2-(1-Azabicyclo[3.3.0]octan-5-yl)ethyl]-2-nitroaniline(fumarate)] | 90 |
| C=C1CC2(CCN(C)CC2)OC1C (stereo not drawn) [2,8-Dimethyl-3-methylene-1-oxa-8-azabicyclo-[4.5]decane, reference compound] | 23600 |
| O=CN(CC12CCCN1CCC2)c1ccccc1 [Example 13, N-(1-azabicyclo[3.3.0]octan-5-yl)methyl-N-formylaniline] | 300 |
| CN(CC12CCCN1CCC2)c1cccc2ccccc12 [Example 6, 1-[N-(1-Azabicyclo[3.3.0]octan-5-yl)methyl-N-methylamino]-naphthalene] | 30 |

same assay, conditions: read-out: 50% inhibition (IC50) against binding of 3H-pirenzepine to brain homogenate; 2.0 nM 3H-pirenzepine; rat brain homogenate without cerebellum; 550 mM phosphate buffer pH 7.4; 60 minutes at room temperature

| SMILES | IC50 [nM] |
| --- | --- |
| NC(=O)c1ccccc1NCCC12CCCN1CCC2 [Example 33, 2-{[2-(1-Azabicyclo[3.3.0]octan-5-yl)ethyl]amino}benzamide] | 1110 |

tested on: acetylchotine esterass; assay: not given; settings: background; cited from earlier work

| SMILES | inhibition to acetylcholine esterase |
| --- | --- |
| Nc1c2c(nc3ccccc13)CCCC2 [THA, 1,2,3,4tetrahydro-9-aminoacridine] | its action cannot be said as powerful |

Reference: US5530138A, “Compounds and use thereof” (priority 1993, dated 1996)
